Assay results as given in publication PMC5897774, “Mitotic spindle association of TACC3 requires Aurora‐A‐dependent stabilization of a cryptic α‐helix” (The EMBO Journal, 2018).
Read-outs that look alike come from different tables or passages of the source. Residues, ends and D or L forms follow the SMILES beside them. No end group written: not given here.

Columns and labels:
Aurora‐A [1] = target: T1, Aurora‐A (Homo sapiens, UniProt O14965, C290A/C393A); test: FP binding assay, FAM-TACC3 peptides to Aurora‐A (WT); settings: fluorescence polarization
T1 construct: pET30TEV Aurora‐A 122–403 C290A, C393A; made in house
T1 sequence (O14965 122-403 C290A/C393A): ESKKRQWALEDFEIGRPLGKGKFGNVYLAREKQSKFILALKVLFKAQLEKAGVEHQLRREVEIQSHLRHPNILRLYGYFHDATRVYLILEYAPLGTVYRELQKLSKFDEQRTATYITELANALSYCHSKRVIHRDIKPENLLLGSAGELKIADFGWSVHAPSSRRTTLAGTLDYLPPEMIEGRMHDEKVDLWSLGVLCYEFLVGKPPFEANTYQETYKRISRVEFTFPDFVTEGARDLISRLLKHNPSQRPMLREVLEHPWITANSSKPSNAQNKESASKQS
Method: The contributions of the site 1 residues to the interaction were quantified using fluorescence polarization spectroscopy (FP) with a set of fluorescein (FAM)‐labelled peptides. […] Mutations within the pocket on Aurora‐A which accommodates the F525 side chain (E134A, R137A, L149A, R151A and I158A mutations) all reduced the affinity for the WT TACC3 522–536 peptide.
Aurora‐A/TACC3 fluorescence polarization assays were performed as stated (Richards et al, 2016) using FAM‐TACC3 peptides (PPR, Cambridge; Almac, Craigavon). Binding assays were performed in triplicate. FP signal was fit to a one‐site total binding model in Prism 6 (GraphPad). Results are reported as K d ± SE.

[2] = system: mitotic spindle, HeLa cells; test: Spindle localization of re‐expressed GFP‐CHC constructs in CHC‐depleted HeLa cells; format: cell-based, human; settings: metaphase, endogenous CHC depleted, confocal imaging
Method: For RNAi and re‐expression of GFP‐tagged proteins in HeLa cells, siRNA and pBrain plasmids were used. Briefly, for TACC3, cells were transfected with siRNA on day 0, transfected 10 h later with pBrain plasmid and analysed on day 2. For CHC, cells were transfected with siRNA on day 0, transfected with pBrain plasmids on day 2 and fixed on day 4.
For immunofluorescence studies on the CHC/TACC3 interface mutants, cells were fixed with PTEMF (50 mM PIPES, pH 7.2, 10 mM EGTA, 1 mM MgCl2, 0.2% Triton X‐100, and 4% paraformaldehyde) for 15 min at RT, and then permeabilized (PBS with 0.1% Triton X‐100) for 10 min. Cells were blocked (PBS with 3% BSA, 5% goat serum) for 30 min, and then incubated for 1 h with the specified primary antibodies: mouse anti‐CHC (X22, Affinity BioReagents, 1:1,000), rabbit anti‐alpha tubulin (Thermo, PA5‐19489, 1:1,000), mouse anti‐TACC3 (AbCam, ab56595, 1:1,000). Secondary antibodies labelled with Alexa Fluor 568 or Alexa Fluor 647 from Life Technologies (diluted 1:500) were used along with DAPI. […] Equal exposure settings and scaling were used between conditions.
For spindle enrichment analysis, mean pixel density in two 10 × 10 pixel ROI was measured either over the spindle (away from poles), in the cytoplasm or in a non‐cell region of background, using ImageJ. Background was subtracted from the spindle and cytoplasm measurements, and spindle fluorescence was then divided by cytoplasm fluorescence. Sample sizes 48–53 cells (TACC3) and 36–51 cells (CHC) over two experiments were analysed per condition. […] Differences in spindle recruitment were evident at all expression levels. IgorPro was used to find and plot the ratio of spindles to cytoplasmic fluorescence intensity per cell. Images were cropped in ImageJ, and figures were assembled in Adobe Illustrator. Some images were contrast adjusted for presentation.

Aurora‐A [3] = target: T1, Aurora‐A; test: Radioactive 32P‐ATP kinase assay, MBP substrate; format: biochemical; settings: 0.625 μM phosphorylated Aurora‐A, 5 μM TACC3^N‐ACID, 0.25 mg/ml MBP, 10 min, scintillation counting, duplicate
Method: Figure EV2 Biochemical and structural analysis of the Aurora‐A/TACC3 complex • FP assay between FAM‐TACC3 519–570 and Aurora‐A. Reactions were performed in triplicate. Error bars represent standard deviation. […] Error bars represent standard deviation. […] This peptide was based on the location of a sulphate ion, originating from the crystallization solution, at the interface of the Aurora‐A/TACC3 interface in the crystal structure, close to TACC3 T534. […] Myelin basic protein (MBP) was used as a generic kinase substrate. Incorporation of radioisotope was measured by scintillation counting. Reactions were performed in duplicate. Error bars represent standard error. Assays were compared to the WT TACC3^N‐ACIDH6c reaction by one‐way ANOVA with Dunnett's post hoc test. […], **P < 0.01 and ****P < 0.0001. • Multiple sequence alignment of TACC3 (above) and Aurora‐A (below) orthologs spanning the interaction binding interface. Key binding residues are boxed in red. The TACC3 phosphorylation sites, S552 and S558, are boxed in blue. The TACC3 LL motif required for binding to CHC is boxed in green. The TACC3 α‐helix produced on binding to CHC is identified by a black line. TEXT PRINTED IN THE PICTURE: (A) TACC3 519-570: 3.0 ± 0.2 μM | (B) WT: 20 ± 1 μM | (B) R526A: 49 ± 2 μM | (B) phospho-T534: 14 ± 1 μM
Radioactive ^32P‐ATP kinase assays were performed as described previously (Burgess et al, 2015). In brief, 0.625 μM Aurora‐A^M3KD WT or selected mutant was incubated with 0.25 mg/ml MBP alone and in the presence of 5 μM TACC3^N‐ACID WT or mutant for 10 min. Reactions were terminated by the addition of 2% (v/v) orthophosphoric acid. Samples were spotted onto P81 Whatman paper, washed extensively with 0.2% (v/v) orthophosphoric acid and incorporation of radioisotope measured by scintillation counting.

[4] = system: Aurora‐A KD (substrate: Aurora‐A D274N); test: Substrate phosphorylation of kinase‐dead Aurora‐A D274N by Aurora‐A KD (Western blot αphospho‐T288); format: biochemical, human; settings: Aurora‐A D274N as substrate, 1 h, room temperature
Text: (§1) Figure 2 TACC3 523–534 forms a docking interaction on the N‐lobe of Aurora‐A • Magnified view of the site 1 interaction. • Schematic showing the key features of the TACC3/Aurora‐A interface. • FP assays of binding between site 1 of TACC3 and Aurora‐A. The sequence of TACC3 present in the complex crystal structure is shown (top) with the residues of the site 1 FP peptide coloured orange and mutated residues identified by coloured circles corresponding to the curves shown in the FP assay (below). Data represent mean of three experiments ± SD. […] Data represent mean of three experiments ± SD. […] Reactions were analysed by SDS–PAGE (above) and Western blotting with an αphospho‐T288 Aurora‐A antibody (below). […] They are listed as printed.
(§2) Autophosphorylation assays were performed as for radioactive ^32P‐ATP reactions using Aurora‐A 122–403 co‐expressed with lambda phosphatase for 1 h at room temperature with His‐Aurora‐A D274N as a substrate in replace of MBP. Reactions were resolved by SDS–PAGE and subject to Western blotting using an α‐phospho‐T288 Aurora‐A antibody (CST 2914, 1:2,000) as per the manufacturer's recommendation.

[5] = system: unphosphorylated Aurora‐A KD; test: Autophosphorylation assay of unphosphorylated Aurora‐A KD (Western blot αphospho‐T288); format: biochemical, human; settings: unphosphorylated Aurora‐A 122–403, 1 h, room temperature
Text: as §1, §2

Aurora‐A [6] = target: T1, Aurora‐A; set-up: method as in Burgess et al, 2015; settings: previous data, effect of F525A mutation; ref Burgess et al, 2015; read-out: K d of the interaction; cited from earlier work
[7] = target: T2, FAM‐TACC3 549–570 phosphorylated on S558 (FAM‐phospho‐TACC3^CID) (human, UniProt Q9Y6A5 549-570, fluorescein (FAM) label; phosphoserine at 558); test: fluorescence polarisation; CHC proteins serially diluted in 20 mM HEPES–NaOH pH 7.5, 200 mM NaCl, 5 mM DTT; 50 nM FAM‐labelled TACC3 peptide; 30 min at room temperature; read at 25°C; settings: both partners purified
T2 construct: TACC3, human, aa549–570 (TACC3^CID); also called pTACC3^CID; FAM‐labelled pTACC3^CID; source: FAM‐labelled peptide (FAM‐TACC3 peptides: PPR, Cambridge; Almac, Craigavon)
T2 peptide (looked up): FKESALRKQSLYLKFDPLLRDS

Molecule: CC(C)[C@H](NC(=O)[C@H](CCC(=O)O)NC(=O)[C@H](C)NC(=O)[C@@H]1CCCN1C(=O)[C@H](CC(=O)O)NC(=O)[C@H](CCCNC(=N)N)NC(=O)[C@H](Cc1ccccc1)NC(=O)[C@H](CO)NC(=O)[C@H](CCC(=O)O)NC(=O)[C@H](CCC(=O)O)NC(=O)c1ccc2c(c1)C(=O)OC21c2ccc(O)cc2Oc2cc(O)ccc21)C(=O)N[C@@H](C)C(=O)NCC(=O)N[C@H](C(=O)NCC(=O)N[C@@H](C)C(=O)O)[C@@H](C)O [L532A] (HELM PEPTIDE1{[O=C1OC2(c3ccc(O)cc3Oc3cc(O)ccc32)c2ccc(C(=O)[*:2])cc21].E.E.S.F.R.D.P.A.E.V.A.G.T.G.A}$$$$V2.0; N-terminus and C-terminus assumed)
- reduced affinity (Aurora‐A [1]; relative to WT TACC3 522–536 peptide): 10 fold

Molecule: ELKEESFRDPAEVLGTGAEVDYLEQFGTSSFKESALRKQSLYLKFDPLLRDS [FAM‐TACC3 519–570]
- Kd (Aurora‐A [1]; FAM‐labelled peptide, triplicate, one‐site total binding fit, legend: mean of three experiments ± SD, methods: K d ± SE, read-out: K d (binding affinity)): 3 ± 0.2 µM

Molecule: GFP‐CHC D455K: mutation of a residue that holds R481 in place
- spindle localization of GFP‐CHC construct [2]: impaired in spindle localization

Molecule: GFP‐CHC L476D, L480D: GFP-CHC mutated in the TACC3 binding site
- spindle localization of GFP‐CHC construct [2]: impaired in spindle localization

Molecule: GFP‐CHC L503A, Y504A: GFP-CHC mutated in the TACC3 binding site
- spindle localization of GFP‐CHC construct [2]: impaired in spindle localization

Molecule: GFP‐CHC R481E: GFP-CHC mutated in the TACC3 binding site
- spindle localization of GFP‐CHC construct [2]: impaired in spindle localization

Molecule: TACC3^N‐ACID F525A: TACC3^N-ACID with F525A mutation (ELKEESARDPAEVLGTGAEVDYLEQFGTSSFKESALRKQSLYLKF; not fully specified (C-terminus))
- stimulation of Aurora‐A activity (Aurora‐A [3]): twofold–threefold
- substrate phosphorylation on T288 (Aurora‐A D274N) [4]: reduced
- Aurora‐A autophosphorylation on T288 [5]: reduced
- Kd (Aurora‐A [6]): > 150 µM

Molecule: TACC3^N‐ACID L532A: TACC3^N-ACID with L532A mutation (ELKEESFRDPAEVAGTGAEVDYLEQFGTSSFKESALRKQSLYLKF; not fully specified (C-terminus))
- stimulation of Aurora‐A activity (Aurora‐A [3]): twofold–threefold

B1: CHC 1–574 F492Y (domain or fragment, UniProt Q00610 1-574, looked up)
chain: MAQILPIRFQEHLQLQNLGINPANIGFSTLTMESDKFICIREKVGEQAQVVIIDMNDPSNPIRRPISADSAIMNPASKVIALKAGKTLQIFNIEMKSKMKAHTMTDDVTFWKWISLNTVALVTDNAVYHWSMEGESQPVKMFDRHSSLAGCQIINYRTDAKQKWLLLTGISAQQNRVVGAMQLYSVDRKVSQPIEGHAASFAQFKMEGNAEESTLFCFAVRGQAGGKLHIIEVGTPPTGNQPFPKKAVDVFFPPEAQNDFPVAMQISEKHDVVFLITKYGYIHLYDLETGTCIYMNRISGETIFVTAPHEATAGIIGVNRKGQVLSVCVEEENIIPYITNVLQNPDLALRMAVRNNLAGAEELFARKFNALFAQGNYSEAAKVAANAPKGILRTPDTIRRFQSVPAQPGQTSPLLQYFGILLDQGQLNKYESLELCRPVLQQGRKQLLEKWLKEDKLECSEELGDLVKSVDPTLALSVYLRANVPNKVIQCYAETGQVQKIVLYAKKVGYTPDWIFLLRNVMRISPDQGQQFAQMLVQDEEPLADITQIVDVFMEYNLIQQCTAFLLDALKNNR
notes: source: expressed and purified as the WT protein (modified pGEX vector; GST cleaved with TEV)
- fold increase in Kd against WT [7]: > 6 fold
